# Laboratory results: patent publication US8048881B2, “Pyrimidine derivatives and their use as P2Y12 receptor antagonists” (Actelion Pharmaceuticals Ltd., priority 2005, dated 2011)
# pIC50: −log10 of the molar value. Structures can show the parent of a compound that is named as a salt.
# Molecular target: T1, human P2Y12 receptor (Homo sapiens, UniProt Q9H244)
# T1 construct: expressed in transfected cells; host or cells: Chinese Hamster Ovary (CHO) cells
# Experiment: P2Y12 receptor binding assay
# Details: CHO cells with recombinant expression of the human P2Y12 receptor; tritium-labeled 2-methyl-S-ADP; incubation at room temperature for 2 hours
# Protocol: P2Y12 Receptor Binding Assay
# Chinese Hamster Ovary (CHO) cells with recombinant expression of the human P2Y12 receptor were cultured in 24 well cell-culture plates. Cells were washed three times with binding buffer (50 mM Tris pH 7.4, 100 mM NaCl, 1 mM EDTA, 0.5% BSA). The cells were then incubated with 0.5 ml per well binding buffer containing tritium-labeled 2-methyl-thio-adenosine 5′-diphosphate (2-methyl-S-ADP) (between 100'000 and 300'000 dpm per well) and various concentrations of test compounds. After incubation at room temperature for 2 hours, cells were washed three times with binding buffer. Then, cells were solubilized by addition of 0.5 ml solubilization buffer (SDS, NaOH, EDTA). The content of each well was then transferred into beta-counter vials and 2.0 ml of Ultima Gold Scintillation liquid was added.
# T1 sequence (Q9H244 whole entry): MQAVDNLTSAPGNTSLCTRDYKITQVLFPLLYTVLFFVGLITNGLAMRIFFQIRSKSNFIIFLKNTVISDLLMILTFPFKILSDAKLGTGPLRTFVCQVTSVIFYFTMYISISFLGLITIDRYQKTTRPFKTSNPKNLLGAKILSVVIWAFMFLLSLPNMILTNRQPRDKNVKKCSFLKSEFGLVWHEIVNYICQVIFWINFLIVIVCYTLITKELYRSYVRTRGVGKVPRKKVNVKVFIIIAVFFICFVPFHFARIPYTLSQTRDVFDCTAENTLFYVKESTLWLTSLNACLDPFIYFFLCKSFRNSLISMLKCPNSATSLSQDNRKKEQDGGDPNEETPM
row,Compound,pIC50
1,"CCOC(=O)N1CCN(C(=O)[C@H](CCC(=O)O)NC(=O)c2cc(/C=C/C(C)O)nc(-c3ccccc3)n2)CC1 (stereo partly drawn) [Example 267, 4-((S)-4-carboxy-2-{[6-((E)-3-hydroxy-but-1-enyl)-2-phenyl-pyrimidine-4-carbonyl]-amino}-butyryl)-piperazine-1-carboxylic acid ethyl ester]",6.67
2,"CCCC(CCC)C(=O)Nc1cc(C(=O)N[C@@H](CCC(=O)O)C(=O)N2CCN(C(=O)OCC)CC2)nc(-c2ccccc2)n1 [Example 341, 4-((S)-4-carboxy-2-{[2-phenyl-6-(2-propyl-pentanoylamino)-pyrimidine-4-carbonyl]-amino}-butyryl)-piperazine-1-carboxylic acid ethyl ester]",6.77
3,"CCOC(=O)N1CCN(C(=O)[C@H](CCc2nnn[nH]2)NC(=O)c2cc(OC3CCCC3)nc(-c3ccccc3)n2)CC1 [Example 19, 4-[(S)-2-[(6-cyclopentyloxy-2-phenyl-pyrimidine-4-carbonyl)-amino]-4-(1H-tetrazol-5-yl)-butyryl]-piperazine-1-carboxylic acid ethyl ester]",6.90
4,"CCOC(=O)N1CCN(C(=O)[C@H](CCC(=O)O)NC(=O)c2cc(SC3CCCCC3)nc(-c3ccccc3)n2)CC1 [Example 251, 4-{(S)-4-carboxy-2-[(6-cyclohexylsulfanyl-2-phenyl-pyrimidine-4-carbonyl)-amino]-butyryl}-piperazine-1-carboxylic acid ethyl ester]",6.20
5,"CCOCc1cc(C(=O)N[C@@H](CCC(=O)O)C(=O)N2CCN(C(=O)OCC)CC2)nc(-c2ccccc2)n1 [Example 430, 4-{(S)-4-carboxy-2-[(6-ethoxymethyl-2-phenyl-pyrimidine-4-carbonyl)-amino]-butyryl}-piperazine-1-carboxylic acid ethyl ester]",6.73
6,"CCOC(=O)N1CCN(C(=O)[C@H](CCC(=O)O)NC(=O)c2cc(C(F)(F)F)nc(-c3ccccc3)n2)CC1 [Example 431, 4-{(S)-4-carboxy-2-[(2-phenyl-6-trifluoromethyl-pyrimidine-4-carbonyl)-amino]-butyryl}-piperazine-1-carboxylic acid ethyl ester]",6.77
7,"C#Cc1cc(C(=O)N[C@@H](CCC(=O)O)C(=O)N2CCN(C(=O)OCC)CC2)nc(-c2ccccc2)n1 [Example 258, 4-{(S)-4-carboxy-2-[(6-ethynyl-2-phenyl-pyrimidine-4-carbonyl)-amino]-butyryl}-piperazine-1-carboxylic acid ethyl ester]",6.60
8,"CCOC(=O)N1CCN(C(=O)[C@H](CCC(=O)O)NC(=O)c2cc(-c3cccc(C)c3)nc(-c3ccccc3)n2)CC1 [Example 94, 4-{(S)-4-carboxy-2-[(2-phenyl-6-m-tolyl-pyrimidine-4-carbonyl)-amino]-butyryl}-piperazine-1-carboxylic acid ethyl ester]",6.70
9,"CCOC(=O)N1CCN(C(=O)[C@H](CCC(=O)O)NC(=O)c2cc(CCC(C)(C)O)nc(-c3ccccc3)n2)CC1 [Example 266, 4-((S)-4-carboxy-2-{[6-(3-hydroxy-3-methyl-butyl)-2-phenyl-pyrimidine-4-carbonyl]-amino}-butyryl)-piperazine-1-carboxylic acid ethyl ester]",6.56
10,"CCCSc1cc(C(=O)N[C@@H](CCC(=O)O)C(=O)N2CCN(C(=O)OCC)CC2)nc(-c2ccccc2)n1 [Example 247, 4-{(S)-4-carboxy-2-[(2-phenyl-6-propylsulfanyl-pyrimidine-4-carbonyl)-amino]-butyryl}-piperazine-1-carboxylic acid ethyl ester]",6.85
11,"CCOC(=O)N1CCN(C(=O)[C@H](Cc2ccc(C(=O)O)cc2)NC(=O)c2cc(NC(C)C)nc(-c3ccccc3)n2)CC1 [Example 115, 4-{(S)-3-(4-carboxy-phenyl)-2-[(6-isopropylamino-2-phenyl-pyrimidine-4-carbonyl)-amino]-propionyl}-piperazine-1-carboxylic acid ethyl ester]",6.41
12,"CCOC(=O)N1CCN(C(=O)[C@H](CCC(=O)O)NC(=O)c2cc(CSC3CCCC3)nc(-c3ccccc3)n2)CC1 [Example 378, 4-{(S)-4-carboxy-2-[(6-cyclopentylsulfanylmethyl-2-phenyl-pyrimidine-4-carbonyl)-amino]-butyryl}-piperazine-1-carboxylic acid ethyl ester]",6.80

# The remaining compounds from weak to strong by pIC50, led by results:
row,pIC50,Compound
1,6.90,"CCOC(=O)N1CCN(C(=O)[C@H](CCC(=O)O)NC(=O)c2cc(C#CC(O)CC)nc(-c3ccccc3)n2)CC1 (stereo partly drawn) [Example 261, 4-((S)-4-carboxy-2-{[6-(3-hydroxy-pent-1-ynyl)-2-phenyl-pyrimidine-4-carbonyl]-amino}-butyryl)-piperazine-1-carboxylic acid ethyl ester]"
2,6.92,"CCOC(=O)N1CCN(C(=O)[C@H](CCC(=O)O)NC(=O)c2cc(N(C)C)nc(-c3ccccc3)n2)CC1 [Example 79, 4-{(S)-4-carboxy-2-[(6-dimethylamino-2-phenyl-pyrimidine-4-carbonyl)-amino]-butyryl}-piperazine-1-carboxylic acid ethyl ester triflate salt]"
3,6.93,"CCOC(=O)N1CCN(C(=O)[C@H](CCC(=O)O)NC(=O)c2cc(OC3CCCC3)nc(-c3ccccc3)n2)CC1 [Example 1, 4-{(S)-4-carboxy-2-[(6-cyclopentyloxy-2-phenyl-pyrimidine-4-carbonyl)-amino]-butyryl}-piperazine-1-carboxylic acid ethyl ester]"
4,7.01,"CCOC(=O)N1CCN(C(=O)[C@H](CCC(=O)O)NC(=O)c2cc(NC(C)COC)nc(-c3ccccc3)n2)CC1 (stereo partly drawn) [Example 223, 4-((S)-4-carboxy-2-{[6-(2-methoxy-1-methyl-ethylamino)-2-phenyl-pyrimidine-4-carbonyl]-amino}-butyryl)-piperazine-1-carboxylic acid ethyl ester formate salt]"
5,7.02,"CC(C)OC(=O)N1CCN(C(=O)[C@H](CCC(=O)O)NC(=O)c2cc(OC3CCCC3)nc(-c3ccccc3)n2)CC1 [Example 38, 4-{(S)-4-carboxy-2-[(6-cyclopentyloxy-2-phenyl-pyrimidine-4-carbonyl)-amino]-butyryl}-piperazine-1-carboxylic acid isopropyl ester]"
6,7.03,"CC(C)(C)NC(=O)N1CCN(C(=O)[C@H](CCC(=O)O)NC(=O)c2cc(OC3CCCC3)nc(-c3ccccc3)n2)CC1 [Example 435, (S)-5-(4-tert-butylcarbamoyl-piperazin-1-yl)-4-[(6-cyclopentyloxy-2-phenyl-pyrimidine-4-carbonyl)-amino]-5-oxo-pentanoic acid]"
7,7.07,"CCOC(=O)N1CCN(C(=O)[C@H](CCC(=O)O)NC(=O)c2cc(CN(C)Cc3ccccc3)nc(-c3ccccc3)n2)CC1 [Example 362, 4-[(S)-2-({6-[(benzyl-methyl-amino)-methyl]-2-phenyl-pyrimidine-4-carbonyl}-amino)-4-carboxy-butyryl]-piperazine-1-carboxylic acid ethyl ester]"
8,7.21,"CCOC(=O)N1CCN(C(=O)[C@H](CCC(=O)O)NC(=O)c2cc(N3CCC[C@@H]3COC)nc(-c3ccccc3)n2)CC1 [Example 324, 4-((S)-4-carboxy-2-{[6-((R)-2-methoxymethyl-pyrrolidin-1-yl)-2-phenyl-pyrimidine-4-carbonyl]-amino}-butyryl)-piperazine-1-carboxylic acid ethyl ester formate salt]"
